Data from patent US7507540B1, “Catalytic anti-factor VIII allo-antibodies” (Institut National de la Sante et de la Recherche Medicale …, priority 1999, dated 2009).
Non-standard residues stand in square brackets, D forms with d. Residues, ends and D or L forms follow the SMILES beside them. *: point of attachment. Sta = CC(C)C[C@H](N)[C@@H](O)CC(=O)O; Isovaleryl = CC(C)CC(=O)*

Test system: proteolytic activity of anti-Factor VIII IgG
Experiment: Inhibition of anti-Factor VIII IgG-catalysed hydrolysis of [125I]-Factor VIII
Format: biochemical, human
Settings: for inhibition of proteolytic activity of anti-Factor VIII IgG: IgG of patients Bor and Wal
Method: Commercial human recombinant Factor VIII was labelled with ^125I to a specific activity of 11.6 nCi/μg, by using the iodogen method. [^125I]-Factor VIII (1.5 to 150 ng) was incubated in 50 μl of 50 mM tris-HCI pH 7.7, 100 mM glycine, 0.025% Tween-20 and 0.02% NaN3 alone or with 17 to 1667 nM of immuno-purified anti-Factor VIII IgG for 5 min to 10 hours at 38° C. Human monoclonal anti-digoxin IgG M061 (mAb) and normal unfractionated human polyclonal IgG (IVIg, Sandoglobulin®), were used as negative controls. Samples were mixed 1:1 with Laemmli's buffer without mercaptoethanol, and were subjected to SDS electrophoresis without boiling,. Samples were run in parallel on 7.5% and 15% SDS-PAGE under non-reducing conditions, after loading 20 μl of each sample per lane. Migration was performed at room temperature using a mini-PROTEAN II system at 25 mA/gel, until the dye front reached the bottom of the gel. […] Following autoradiography, the Factor VIII bands of apparent molecular weight 200 and 300 kDa that are consistently hydrolysed by anti-Factor VIII IgG, were scanned so as to allow for the calculation of the rate of hydrolysis of labelled Factor VIII.
Hydrolysis of [^125I]-Factor VIII by affinity-purified anti-Factor VIII IgG antibodies of haemophilia A patients with inhibitor in the presence of Pefabloc®. [^125I]-Factor VIII (150 ng) was incubated alone, with 50 μg/ml of immunopurified anti-Factor VIII IgG of patient Wal or in the presence of both anti-Factor VIII IgG and 4 mM of the serine protease inhibitor Pefabloc® (Boehringer) for 5 h at 38° C. Factor VIII was then analysed by 7.5% SDS-PAGE under non-reducing conditions. Following autoradiography, the Factor VIII bands of apparent molecular weight 200 and 300 kDa that are consistently hydrolysed by anti-FVIII IgG, were scanned so as to allow for the calculation of the % of hydrolysis of labelled […].

CC(C)C[C@H](NC(=O)[C@H]1O[C@@H]1C(=O)O)C(=O)NCCCCN=C(N)N [E-64]
inhibition of proteolytic activity of anti-Factor VIII IgG (E-64 28 μM): did not result in inhibition of proteolytic activity

O=C(O)CN(CCN(CC(=O)O)CC(=O)O)CC(=O)O [EDTA]
inhibition of proteolytic activity of anti-Factor VIII IgG (EDTA 1.3 μM): did not result in inhibition of proteolytic activity

Cl.NCCc1ccc(S(=O)(=O)F)cc1 [Pefabloc, 4-(2-aminoethyl)benzenesulphonyl fluoride hydrochloride]
inhibition of proteolysis of radio-labelled Factor VIII by anti-Factor VIII allo-antibodies of patient Wal (4 mM Pefabloc, 50 μg/ml IgG of patient Wal, 5 h at 38° C.): about 62%

CC(=O)N[C@@H](CC(C)C)C(=O)N[C@@H](CC(C)C)C(=O)N[C@H](C=O)CCCNC(=N)N [leupeptin]
inhibition of proteolytic activity of anti-Factor VIII IgG (leupeptin 10 μM): did not result in inhibition of proteolytic activity

CC(C)CC(=O)N[C@H](C(=O)N[C@H](C(=O)N[C@@H](CC(C)C)[C@@H](O)CC(=O)N[C@@H](C)C(=O)N[C@@H](CC(C)C)[C@@H](O)CC(=O)O)C(C)C)C(C)C [pepstatin] (Isovaleryl-VV[Sta]A[Sta]-OH)
inhibition of proteolytic activity of anti-Factor VIII IgG (pepstatin 10 μM): did not result in inhibition of proteolytic activity

aprotinin
inhibition of proteolytic activity of anti-Factor VIII IgG (aprotinin 0.15 μM): did not result in inhibition of proteolytic activity

vWF: purified von Willebrand Factor
partial inhibition of hydrolysis of Factor VIII by anti-Factor VIII IgG (30 μg/ml of vWF versus 300 ng/ml of Factor VIII): 36.9%
